Measured values from the NIST ThermoML archive (doi:10.1016/j.jct.2018.01.024).

Assay: mn = molality of the nth substance listed, in mol/kg
Conditions: Liquid

NC(N)=O [urea] + O
Conditions	mass density [kg/m3]
279.15 K, 101 kPa, Vibrating tube method, m1 = 0.1063	1001.79
279.15 K, 101 kPa, Vibrating tube method, m1 = 0.141	1002.39
279.15 K, 101 kPa, Vibrating tube method, m1 = 0.152	1002.57
279.15 K, 101 kPa, Vibrating tube method, m1 = 0.1809	1003.07
279.15 K, 101 kPa, Vibrating tube method, m1 = 0.2423	1004.12
279.15 K, 101 kPa, Vibrating tube method, m1 = 0.4362	1007.39
279.15 K, 101 kPa, Vibrating tube method, m1 = 0.5644	1009.51
279.15 K, 101 kPa, Vibrating tube method, m1 = 1.008	1016.61
279.15 K, 101 kPa, Vibrating tube method, m1 = 1.609	1025.68
279.15 K, 101 kPa, Vibrating tube method, m1 = 2.505	1038.19
280.15 K, 101 kPa, Vibrating tube method, m1 = 0.093	1001.51
280.15 K, 101 kPa, Vibrating tube method, m1 = 0.1063	1001.74
280.15 K, 101 kPa, Vibrating tube method, m1 = 0.141	1002.33
280.15 K, 101 kPa, Vibrating tube method, m1 = 0.152	1002.52
280.15 K, 101 kPa, Vibrating tube method, m1 = 0.1809	1003.02
280.15 K, 101 kPa, Vibrating tube method, m1 = 0.2423	1004.06
280.15 K, 101 kPa, Vibrating tube method, m1 = 0.4362	1007.31
280.15 K, 101 kPa, Vibrating tube method, m1 = 0.5644	1009.42
280.15 K, 101 kPa, Vibrating tube method, m1 = 1.008	1016.48
280.15 K, 101 kPa, Vibrating tube method, m1 = 1.609	1025.5
280.15 K, 101 kPa, Vibrating tube method, m1 = 2.505	1037.95
281.15 K, 101 kPa, Vibrating tube method, m1 = 0.093	1001.45
281.15 K, 101 kPa, Vibrating tube method, m1 = 0.1063	1001.67
281.15 K, 101 kPa, Vibrating tube method, m1 = 0.141	1002.26
281.15 K, 101 kPa, Vibrating tube method, m1 = 0.152	1002.46
281.15 K, 101 kPa, Vibrating tube method, m1 = 0.1809	1002.95
281.15 K, 101 kPa, Vibrating tube method, m1 = 0.2423	1003.99
281.15 K, 101 kPa, Vibrating tube method, m1 = 0.4362	1007.21
281.15 K, 101 kPa, Vibrating tube method, m1 = 0.5644	1009.31
281.15 K, 101 kPa, Vibrating tube method, m1 = 1.008	1016.33
281.15 K, 101 kPa, Vibrating tube method, m1 = 1.609	1025.3
281.15 K, 101 kPa, Vibrating tube method, m1 = 2.505	1037.71
282.15 K, 101 kPa, Vibrating tube method, m1 = 0.093	1001.37
282.15 K, 101 kPa, Vibrating tube method, m1 = 0.1063	1001.6
282.15 K, 101 kPa, Vibrating tube method, m1 = 0.141	1002.18
282.15 K, 101 kPa, Vibrating tube method, m1 = 0.152	1002.37
282.15 K, 101 kPa, Vibrating tube method, m1 = 0.1809	1002.86
282.15 K, 101 kPa, Vibrating tube method, m1 = 0.2423	1003.89
282.15 K, 101 kPa, Vibrating tube method, m1 = 0.4362	1007.1
282.15 K, 101 kPa, Vibrating tube method, m1 = 0.5644	1009.18
282.15 K, 101 kPa, Vibrating tube method, m1 = 1.008	1016.17
282.15 K, 101 kPa, Vibrating tube method, m1 = 1.609	1025.12
282.15 K, 101 kPa, Vibrating tube method, m1 = 2.505	1037.45
283.15 K, 101 kPa, Vibrating tube method, m1 = 0.093	1001.28
283.15 K, 101 kPa, Vibrating tube method, m1 = 0.1063	1001.51
283.15 K, 101 kPa, Vibrating tube method, m1 = 0.141	1002.09
283.15 K, 101 kPa, Vibrating tube method, m1 = 0.152	1002.27
283.15 K, 101 kPa, Vibrating tube method, m1 = 0.1809	1002.76
283.15 K, 101 kPa, Vibrating tube method, m1 = 0.2423	1003.78
283.15 K, 101 kPa, Vibrating tube method, m1 = 0.4362	1006.97
283.15 K, 101 kPa, Vibrating tube method, m1 = 0.5644	1009.04
283.15 K, 101 kPa, Vibrating tube method, m1 = 1.008	1016
283.15 K, 101 kPa, Vibrating tube method, m1 = 1.609	1024.89
283.15 K, 101 kPa, Vibrating tube method, m1 = 2.505	1037.2
288.15 K, 101 kPa, Vibrating tube method, m1 = 0.093	1000.63
288.15 K, 101 kPa, Vibrating tube method, m1 = 0.1063	1000.85
288.15 K, 101 kPa, Vibrating tube method, m1 = 0.141	1001.42
288.15 K, 101 kPa, Vibrating tube method, m1 = 0.152	1001.6
288.15 K, 101 kPa, Vibrating tube method, m1 = 0.1809	1002.08
288.15 K, 101 kPa, Vibrating tube method, m1 = 0.2423	1003.08
288.15 K, 101 kPa, Vibrating tube method, m1 = 0.4362	1006.2
288.15 K, 101 kPa, Vibrating tube method, m1 = 0.5644	1008.22
288.15 K, 101 kPa, Vibrating tube method, m1 = 1.008	1015
288.15 K, 101 kPa, Vibrating tube method, m1 = 1.609	1023.7
288.15 K, 101 kPa, Vibrating tube method, m1 = 2.505	1035.73
288.15 K, 101 kPa, Vibrating tube method, m1 = 3.376	1046.46
288.15 K, 101 kPa, Vibrating tube method, m1 = 4.33	1057.3
288.15 K, 101 kPa, Vibrating tube method, m1 = 5.39	1068.26
288.15 K, 101 kPa, Vibrating tube method, m1 = 8	1091.62
288.15 K, 101 kPa, Vibrating tube method, m1 = 9.9	1105.86
288.15 K, 101 kPa, Vibrating tube method, m1 = 12.8	1124.47
288.15 K, 10000 kPa, Constant-volume piezometry, m1 = 0.1809	1006.62
288.15 K, 10000 kPa, Constant-volume piezometry, m1 = 0.4362	1010.71
288.15 K, 10000 kPa, Constant-volume piezometry, m1 = 0.5644	1012.73
288.15 K, 10000 kPa, Constant-volume piezometry, m1 = 1.609	1028.1
288.15 K, 10000 kPa, Constant-volume piezometry, m1 = 2.505	1040.04
288.15 K, 10000 kPa, Constant-volume piezometry, m1 = 3.376	1050.69
288.15 K, 10000 kPa, Constant-volume piezometry, m1 = 5.39	1072.37
288.15 K, 10000 kPa, Constant-volume piezometry, m1 = 8	1095.6
288.15 K, 10000 kPa, Constant-volume piezometry, m1 = 10.99	1117.15
288.15 K, 10000 kPa, Constant-volume piezometry, m1 = 12.8	1128.28
288.15 K, 25000 kPa, Constant-volume piezometry, m1 = 0.1809	1013.33
288.15 K, 25000 kPa, Constant-volume piezometry, m1 = 0.4362	1017.37
288.15 K, 25000 kPa, Constant-volume piezometry, m1 = 0.5644	1019.38
288.15 K, 25000 kPa, Constant-volume piezometry, m1 = 1.609	1034.57
288.15 K, 25000 kPa, Constant-volume piezometry, m1 = 2.505	1046.37
288.15 K, 25000 kPa, Constant-volume piezometry, m1 = 3.376	1056.91
288.15 K, 25000 kPa, Constant-volume piezometry, m1 = 5.39	1078.39
288.15 K, 25000 kPa, Constant-volume piezometry, m1 = 8	1101.46
288.15 K, 25000 kPa, Constant-volume piezometry, m1 = 10.99	1122.84
288.15 K, 25000 kPa, Constant-volume piezometry, m1 = 12.8	1133.9
288.15 K, 50000 kPa, Constant-volume piezometry, m1 = 0.1809	1024.08
288.15 K, 50000 kPa, Constant-volume piezometry, m1 = 0.4362	1028.05
288.15 K, 50000 kPa, Constant-volume piezometry, m1 = 0.5644	1029.99
288.15 K, 50000 kPa, Constant-volume piezometry, m1 = 1.609	1044.87
288.15 K, 50000 kPa, Constant-volume piezometry, m1 = 2.505	1056.4
288.15 K, 50000 kPa, Constant-volume piezometry, m1 = 3.376	1066.74
288.15 K, 50000 kPa, Constant-volume piezometry, m1 = 5.39	1087.86
288.15 K, 50000 kPa, Constant-volume piezometry, m1 = 8	1110.67
288.15 K, 50000 kPa, Constant-volume piezometry, m1 = 10.99	1131.87
288.15 K, 50000 kPa, Constant-volume piezometry, m1 = 12.8	1142.81
288.15 K, 75000 kPa, Constant-volume piezometry, m1 = 0.1809	1034.29
288.15 K, 75000 kPa, Constant-volume piezometry, m1 = 0.4362	1038.17
288.15 K, 75000 kPa, Constant-volume piezometry, m1 = 0.5644	1040.07
288.15 K, 75000 kPa, Constant-volume piezometry, m1 = 1.609	1054.62
288.15 K, 75000 kPa, Constant-volume piezometry, m1 = 2.505	1065.93
288.15 K, 75000 kPa, Constant-volume piezometry, m1 = 3.376	1076.06
288.15 K, 75000 kPa, Constant-volume piezometry, m1 = 5.39	1096.81
288.15 K, 75000 kPa, Constant-volume piezometry, m1 = 8	1119.36
288.15 K, 75000 kPa, Constant-volume piezometry, m1 = 10.99	1140.4
288.15 K, 75000 kPa, Constant-volume piezometry, m1 = 12.8	1151.22
288.15 K, 100000 kPa, Constant-volume piezometry, m1 = 0.1809	1043.99
288.15 K, 100000 kPa, Constant-volume piezometry, m1 = 0.4362	1047.8
